Reference: publication PMC7615656 (European journal of pharmacology, 2010)

Experiments:
[1] = target: recombinant rat α3β3γ2 receptors (Rattus norvegicus, UniProt P18508+P20236); experiment: Two-electrode voltage clamp of GABA-induced chloride currents in Xenopus oocytes; format: cell-based; details: for efficacy (% GABA EC3): α3β3γ2, ns = not significant
[2] = target: recombinant rat α1β3γ2F77I receptors (Rattus norvegicus, UniProt P18508+P62813, F115I); experiment: as above; format: cell-based; details: for efficacy (% GABA EC3): α1β3γ2F77I, ns = not significant
[3] = target: recombinant rat α4β3γ2F77I receptors (Rattus norvegicus, UniProt P18508+P28471, F115I); experiment: as above; format: cell-based; details: 10 μM, ns = not significant
[4] = target: recombinant rat α3β3γ2F77I receptors (Rattus norvegicus, UniProt P18508+P20236, F115I); experiment: as above; format: cell-based; details: for efficacy (% GABA EC3): α3β3γ2F77I, ns = not significant
[5] = target: recombinant rat α2β3γ2 receptors (Rattus norvegicus, UniProt P18508+P23576); experiment: as above; format: cell-based; details: α2β3γ2; for efficacy (% GABA EC3): ns = not significant
Sequence of recombinant rat α2β3γ2 receptors (P23576 29-451): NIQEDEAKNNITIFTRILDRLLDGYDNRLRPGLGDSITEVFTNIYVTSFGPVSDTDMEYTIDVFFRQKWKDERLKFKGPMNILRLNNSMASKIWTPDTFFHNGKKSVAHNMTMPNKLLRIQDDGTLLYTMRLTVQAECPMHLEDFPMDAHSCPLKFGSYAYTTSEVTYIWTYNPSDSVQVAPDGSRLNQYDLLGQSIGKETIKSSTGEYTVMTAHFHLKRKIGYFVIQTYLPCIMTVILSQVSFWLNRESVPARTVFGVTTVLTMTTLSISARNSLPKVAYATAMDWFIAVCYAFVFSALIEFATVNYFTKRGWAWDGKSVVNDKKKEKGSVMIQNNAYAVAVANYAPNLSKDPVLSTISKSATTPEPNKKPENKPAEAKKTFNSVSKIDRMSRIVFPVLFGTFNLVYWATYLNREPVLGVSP
Sequence of recombinant rat α2β3γ2 receptors (P63079 26-473 partner): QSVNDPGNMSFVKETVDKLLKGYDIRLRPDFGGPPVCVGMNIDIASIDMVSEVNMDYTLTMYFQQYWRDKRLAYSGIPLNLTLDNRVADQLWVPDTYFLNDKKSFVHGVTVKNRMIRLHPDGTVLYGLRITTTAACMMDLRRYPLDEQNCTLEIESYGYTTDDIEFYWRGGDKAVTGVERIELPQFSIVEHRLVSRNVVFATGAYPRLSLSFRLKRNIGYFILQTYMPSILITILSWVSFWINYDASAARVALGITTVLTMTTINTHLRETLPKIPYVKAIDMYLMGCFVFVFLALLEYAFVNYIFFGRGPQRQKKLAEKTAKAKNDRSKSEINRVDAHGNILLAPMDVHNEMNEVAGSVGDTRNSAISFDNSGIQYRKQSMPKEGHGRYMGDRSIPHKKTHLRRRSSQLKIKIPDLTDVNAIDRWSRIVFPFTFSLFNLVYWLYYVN
Sequence of recombinant rat α2β3γ2 receptors (P18508 39-466): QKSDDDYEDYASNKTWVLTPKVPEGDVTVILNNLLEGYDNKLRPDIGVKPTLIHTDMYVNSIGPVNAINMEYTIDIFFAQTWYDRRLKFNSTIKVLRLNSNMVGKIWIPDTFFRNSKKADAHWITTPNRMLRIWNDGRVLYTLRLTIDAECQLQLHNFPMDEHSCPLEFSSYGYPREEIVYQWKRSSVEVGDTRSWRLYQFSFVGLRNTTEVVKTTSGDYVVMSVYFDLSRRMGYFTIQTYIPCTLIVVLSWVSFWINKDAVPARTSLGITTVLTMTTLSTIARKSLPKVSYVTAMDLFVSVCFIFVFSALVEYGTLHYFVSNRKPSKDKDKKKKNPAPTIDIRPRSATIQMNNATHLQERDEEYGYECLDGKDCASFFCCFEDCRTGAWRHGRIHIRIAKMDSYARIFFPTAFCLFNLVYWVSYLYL

[6] = target: recombinant rat α6β3γ2 receptors (Rattus norvegicus, UniProt P18508+P30191); experiment: as above; format: cell-based; details: α6β3γ2; for efficacy (% GABA EC3): ns = not significant
Sequence of recombinant rat α6β3γ2 receptors (P30191 20-453): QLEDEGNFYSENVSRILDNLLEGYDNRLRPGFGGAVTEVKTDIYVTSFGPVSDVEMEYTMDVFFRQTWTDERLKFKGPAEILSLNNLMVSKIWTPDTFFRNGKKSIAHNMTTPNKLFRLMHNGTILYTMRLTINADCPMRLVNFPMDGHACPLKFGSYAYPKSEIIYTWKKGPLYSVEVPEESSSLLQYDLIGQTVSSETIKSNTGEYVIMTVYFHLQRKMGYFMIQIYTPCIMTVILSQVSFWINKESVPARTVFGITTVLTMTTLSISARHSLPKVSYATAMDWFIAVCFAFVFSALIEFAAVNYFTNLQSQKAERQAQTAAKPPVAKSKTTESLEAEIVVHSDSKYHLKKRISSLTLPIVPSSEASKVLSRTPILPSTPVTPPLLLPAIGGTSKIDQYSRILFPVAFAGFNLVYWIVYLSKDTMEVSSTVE
Sequence of recombinant rat α6β3γ2 receptors (P63079 26-473 partner): as the sequence (P63079 26-473 partner) above
Sequence of recombinant rat α6β3γ2 receptors (P18508 39-466): as the sequence (P18508 39-466) above

[7] = target: recombinant rat α4β3γ2 receptors (Rattus norvegicus, UniProt P18508+P28471); experiment: as above; format: cell-based; details: α4β3γ2; for efficacy (% GABA EC3): ns = not significant
[8] = target: recombinant rat α5β3γ2F77I receptors (Rattus norvegicus, UniProt P18508+P19969, F115I); experiment: as above; format: cell-based; details: for efficacy (% GABA EC3): α5β3γ2F77I, ns = not significant
[9] = target: recombinant rat α5β3γ2 receptors (Rattus norvegicus, UniProt P18508+P19969); experiment: as above; format: cell-based; details: for efficacy (% GABA EC3): α5β3γ2, ns = not significant
[10] = target: recombinant rat α2β3γ2F77I receptors (Rattus norvegicus, UniProt P18508+P23576, F115I); experiment: as above; format: cell-based; details: for efficacy (% GABA EC3): α2β3γ2F77I, ns = not significant
Sequence of recombinant rat α2β3γ2F77I receptors (P23576 29-451): as the sequence (P23576 29-451) above
Sequence of recombinant rat α2β3γ2F77I receptors (P63079 26-473 partner): as the sequence (P63079 26-473 partner) above
Sequence of recombinant rat α2β3γ2F77I receptors (P18508 39-466 F115I): as the sequence (P18508 39-466) above, with F77I counted along it

[11] = target: recombinant rat α1β3γ2 receptors (Rattus norvegicus, UniProt P18508+P62813); experiment: as above; format: cell-based; details: for efficacy (% GABA EC3): α1β3γ2, ns = not significant
[12] = tested on: GABAA receptors containing the γ2F77I mutation; experiment: Modulation of GABA EC3 in receptors containing the γ2F77I mutation; format: cell-based, rat; details: GABAA receptors containing the γ2F77I mutation
[13] = read-out: efficacy (% GABA EC3)

CCc1c(C(=O)OC)ncc2[nH]c3cc(OC)c(OC)cc3c12 [DMCM, methyl-6,7-dimethoxy-4-ethyl-β-carboline-3-carboxylate]
efficacy (% GABA EC3) ([1]; 10 nM): 78 ± 1 % GABA EC3 | efficacy (% GABA EC3) ([1]; 100 nM): 69 ± 1 % GABA EC3 | efficacy (% GABA EC3) ([1]; 1 μM): 75 ± 3 % GABA EC3 | efficacy (% GABA EC3) ([1]; 10 μM): 185 ± 15 % GABA EC3 | efficacy (% GABA EC3) ([2]; 10 nM): ns | efficacy (% GABA EC3) ([2]; 100 nM): ns | efficacy (% GABA EC3) ([2]; 1 μM): 123 ± 3 % GABA EC3 | efficacy (% GABA EC3) ([2]; 10 μM): 269 ± 3 % GABA EC3 | efficacy (% GABA EC3) [3]: 155 ± 9 % GABA EC3 | efficacy (% GABA EC3) ([4]; 10 nM): ns | efficacy (% GABA EC3) ([4]; 100 nM): ns | efficacy (% GABA EC3) ([4]; 1 μM): 126 ± 5 % GABA EC3 | efficacy (% GABA EC3) ([4]; 10 μM): 281 ± 26 % GABA EC3 | efficacy (% GABA EC3) ([5]; 10 nM): 71 ± 7 % GABA EC3 | efficacy (% GABA EC3) ([5]; 100 nM): 54 ± 5 % GABA EC3 | efficacy (% GABA EC3) ([5]; 1 μM): 54 ± 3 % GABA EC3 | efficacy (% GABA EC3) ([5]; 10 μM): ns | efficacy (% GABA EC3) ([6]; 10 nM): ns | efficacy (% GABA EC3) ([6]; 100 nM): 118 ± 9 % GABA EC3 | efficacy (% GABA EC3) ([6]; 1 μM): 189 ± 21 % GABA EC3 | efficacy (% GABA EC3) ([6]; 10 μM): 353 ± 22 % GABA EC3 | efficacy (% GABA EC3) ([7]; 10 nM): ns | efficacy (% GABA EC3) ([7]; 100 nM): 77 ± 1 % GABA EC3 | efficacy (% GABA EC3) ([7]; 1 μM): 88 ± 2 % GABA EC3 | efficacy (% GABA EC3) ([7]; 10 μM): 155 ± 18 % GABA EC3 | efficacy (% GABA EC3) ([8]; 10 nM): ns | efficacy (% GABA EC3) ([8]; 100 nM): ns | efficacy (% GABA EC3) ([8]; 1 μM): ns | efficacy (% GABA EC3) ([8]; 10 μM): 211 ± 40 % GABA EC3 | efficacy (% GABA EC3) ([9]; 10 nM): 53 ± 4 % GABA EC3 | efficacy (% GABA EC3) ([9]; 100 nM): 52 ± 5 % GABA EC3 | efficacy (% GABA EC3) ([9]; 1 μM): 56 ± 6 % GABA EC3 | efficacy (% GABA EC3) ([9]; 10 μM): 145 ± 14 % GABA EC3 | efficacy (% GABA EC3) ([10]; 10 nM): 103 ± 1 % GABA EC3 | efficacy (% GABA EC3) ([10]; 100 nM): 111 ± 2 % GABA EC3 | efficacy (% GABA EC3) ([10]; 1 μM): 123 ± 1 % GABA EC3 | efficacy (% GABA EC3) ([10]; 10 μM): 283 ± 17 % GABA EC3 | efficacy (% GABA EC3) ([11]; 10 nM): 87 ± 8 % GABA EC3 | efficacy (% GABA EC3) ([11]; 100 nM): 79 ± 11 % GABA EC3 | efficacy (% GABA EC3) ([11]; 1 μM): ns | efficacy (% GABA EC3) ([11]; 10 μM): 232 ± 54 % GABA EC3

CNC(=O)c1cc2c(cn1)[nH]c1ccccc12 [FG7142, N-methyl-β-carboline-3-carboxamide]
efficacy (% GABA EC3) ([1]; 100 nM): ns | activity at 1 µM [1, 13]: 95 ± 2% | activity at 10 µM [1, 13]: 91 ± 2% | activity at 0.1 µM [2, 13]: 107 ± 1% | activity at 1 µM [2, 13]: 111 ± 1% | activity at 10 µM [2, 13]: 124 ± 3% | efficacy (% GABA EC3) ([4]; 100 nM): ns | activity at 1 µM [4, 13]: 115 ± 5% | activity at 10 µM [4, 13]: 126 ± 6% | efficacy (% GABA EC3) ([5]; 100 nM): ns | efficacy (% GABA EC3) ([5]; 1 μM): ns | efficacy (% GABA EC3) ([5]; 10 μM): ns | maximal effect on GABA-induced chloride flux (GABA EC3), % of control current ([5]; control current = 100%): the reduction was not significant | maximum stimulation of the GABA-induced current [12]: 126 ± 6% | efficacy (% GABA EC3) ([6]; 100 nM): ns | efficacy (% GABA EC3) ([6]; 1 μM): ns | efficacy (% GABA EC3) ([6]; 10 μM): ns | maximal effect on GABA-induced chloride flux (GABA EC3), % of control current ([6]; control current = 100%): did not significantly influence | efficacy (% GABA EC3) ([7]; 100 nM): ns | efficacy (% GABA EC3) ([7]; 1 μM): ns | efficacy (% GABA EC3) ([7]; 10 μM): ns | maximal effect on GABA-induced chloride flux (GABA EC3), % of control current ([7]; control current = 100%): did not significantly influence | activity at 0.1 µM [8, 13]: 111 ± 2% | activity at 1 µM [8, 13]: 112 ± 4% | activity at 10 µM [8, 13]: 122 ± 4% | efficacy (% GABA EC3) ([9]; 100 nM): ns | efficacy (% GABA EC3) ([9]; 1 μM): ns | activity at 10 µM [9, 13]: 84 ± 5% | efficacy (% GABA EC3) ([10]; 100 nM): ns | efficacy (% GABA EC3) ([10]; 1 μM): ns | activity at 10 µM [10, 13]: 117 ± 4% | efficacy (% GABA EC3) ([11]; 100 nM): ns | activity at 1 µM [11, 13]: 88 ± 5% | activity at 10 µM [11, 13]: 92 ± 4%
